Reference: patent US20230202981A1, “NOVEL SMALL MOLECULES FOR TARGETED DEGRADATION OF UNTARGETABLE KRAS IN CANCER THERAPY” (Pillai Universal LLC, priority 2020, published 2023)

How the values were obtained:
[1] = system: KRAS mutant cell lines; assay: Apoptosis by Annexin V-FITC/PI staining and flow cytometry; format: cell-based; conditions: mutant cancer cells, 24 h
Description: FIG. 6 depicts the compound I induces apoptosis in KRAS-dependent cancer cell line • FIG. 6(A)—Morphological changes after 24 h exposure to compound I ([…]) were captured by an Epifluroscent microscope with ×100 magnification, scale bar: 20 μm. • FIG. 6(B)—Cells were treated with 250 nm of Compound I for 24 h and apoptosis levels were quantitatively measured with flow cytometry after staining cells with Annexin V/propidium iodide (PI), and triplicate data were plotted as bar chart diagram. • FIG. 6(C)—Representative western blot data of different apoptosis-related protein (PARP, Bcl-2, and Bax) confirmed induction of cellular apoptosis after treatment ([…]) for 24 h. […]
Compound 1 was subjected to cancer induced model and determined whether the observed growth inhibition was due to apoptosis or necrosis. […] Next, applying standard Annex in V-FITC/PI staining followed by flow cytometry analysis, the percentage of apoptotic and necrotic cells were quantitatively measured. […] Furthermore, to examine compound-induced apoptosis in KRAS mutant cells, the expression levels of several well-characterized apoptotic proteins were analyzed by western blotting. […] The densitometry quantitation of the ratio of Bax/Bcl2 protein expression and PARP cleavage relative to GAPHD is shown as a bar chart in […].

[2] = system: mitosis; assay: Cell cycle analysis of DNA content and phospho-histone H3B immunofluorescence; format: cell-based
Excerpt: (§1) The present invention is aimed to invent powerful, therapeutic small molecules that could target mutant KRAS on its active sites. Here we identified a small molecule, compound I, that binds the GTP/GDP-binding pocket of KRAS. For this purpose we studied a strong correlation of measurement among a larger panel of tumor cell lines expressing KRAS mutation and analyses the potency to inhibit the tumor cell growth activated RAS. […] Therefore, compound I may be considered as a potential KRAS inhibitor for treatment of cancer cells carrying KRAS oncogene.

[3] = system: BRCA 1/2-deficient cells; assay: Toxicity to BRCA-deficient cells; format: cell-based; conditions: including cisplatin-resistant ones
[4] = Crossing blood-brain barrier: pharmacokinetics in brain regions; format: in vivo; design: AUC0-t_D: concentration or dose not given beside the values
[5] = system: RAS; assay: Effect on RAS degradation (GSK3β, Wnt/β-catenin pathway proteins); format: cell-based
[6] = system: RAS-MAPK pathway signaling in KRAS G12C mutant cell lines; assay: Reactivation of RAS signaling in KRAS G12C mutant cell lines; format: cell-based
Excerpt: Densitometry of phosphor-ERK, MEK, AKT, and MYC is normalized to GAPDH. Results represent an average across 8 cell lines.

[7] = system: GTP-KRAS in KRAS G12C, G12V, G12D, and G13D mutant cells; assay: RAS activation assay, formation of GTP-bound KRAS in mutant cells; format: cell-based; conditions: 24 h
Excerpt: Actually, mutant KRAS would interfere the balance between GEFs and GAPs, resulting in locking in the active GTP-bound KRAS state and aberrant stimulation of its downstream signaling.

[8] = Pharmacokinetics in mice; format: in vivo
[9] = Oral bioavailability; format: in vivo
[10] = system: cancer cells expressing KRAS mutations; assay: Cell viability assay in cancer cells expressing KRAS mutations; format: cell-based
Excerpt: It was further examined that if Compound 1 can also induce cytotoxic effects on other cancer cells expressing KRAS mutations, a panel of cancer cell lines which harbor KRAS G12D, G12V and G12C point mutations respectively, were selected and used with KRAS wild-type (WT) controls.
The cytotoxicity of Compound 1 was initially evaluated in a panel of 30+ cell lines with wild-type (WT) KRAS or known KRAS mutations.

[11] = system: CRAF, AKT and ERK phosphorylation in KRAS mutant cell lines; assay: Phosphorylation of KRAS downstream signaling pathway; format: cell-based; conditions: 48 h, time-dependent
Description: Active KRAS stimulates downstream signaling pathways, especially for RAF/MEK/ERK and […] pathway, and then induces cell proliferation. Therefore, to investigate the effect of Compound 1, the phosphorylation levels of CRAF, AKT and ERK in cell lines was examined to monitor the impact of KRAS signaling by treatment with this compound for 48 h.

[12] = system: normal cell lines; assay: Toxicity in normal cell lines; format: cell-based
[13] = system: KRAS downstream signaling proteins in wild type KRAS; assay: Downstream signaling proteins, wild type KRAS (protein and gene expression analysis); format: cell-based
[14] = system: PD-L1; assay: PD-L1 expression; format: cell-based
Excerpt: as §1

[15] = system: KRAS G12C mutant cell lines; assay: Cytotoxic effect on NCI-Panel of 10 KRAS G12C mutant cell lines; format: cell-based

CCCCc1ncc(C(=O)C2CC=C(C(N)=O)N2)cc1C(=O)OCC (stereo not drawn) [Compound 1]
apoptosis compared with the untreated cells [1]: significantly induced apoptosis | mitotic arrest [2]: induced mitotic arrest | toxicity to BRCA 1/2-deficient cells [3]: specifically toxic | AUC0-t_D ([4]; Brainstem): 85.63 ± 17.43 h × ng/g/mg, h × ng/mL/mg | MRTQ-t ([4]; Brainstem): 5.89 ± 0.34 h | Tmax ([4]; Brainstem): 1.35 ± 0.33 h | T½ ([4]; Brainstem): 1.81 ± 0.23 h | AUC0-t_D ([4]; Cortex): 152.08 ± 5.25 h × ng/g/mg, h × ng/mL/mg | MRTQ-t ([4]; Cortex): 6.23 ± 0.65 h | Tmax ([4]; Cortex): 1.14 ± 0.09 h | T½ ([4]; Cortex): 5.86 ± 2.91 h | AUC0-t_D ([4]; Hippocampus): 58.20 ± 15.36 h × ng/g/mg, h × ng/mL/mg | MRTQ-t ([4]; Hippocampus): 5.18 ± 0.51 h | Tmax ([4]; Hippocampus): 1.25 ± 1.08 h | T½ ([4]; Hippocampus): 1.19 ± 0.22 h | AUC0-t_D ([4]; Hypothalamus): 59.10 ± 5.06 h × ng/g/mg, h × ng/mL/mg | MRTQ-t ([4]; Hypothalamus): 5.25 ± 0.60 h | Tmax ([4]; Hypothalamus): 0.54 ± 0.24 h | T½ ([4]; Hypothalamus): 1.18 ± 0.26 h | AUC0-t_D ([4]; Striatum): 123.81 ± 4.90 h × ng/g/mg, h × ng/mL/mg | MRTQ-t ([4]; Striatum): 6.75 ± 0.68 h | Tmax ([4]; Striatum): 0.14 ± 0.09 h | T½ ([4]; Striatum): 3.45 ± 0.93 h | Axin level ([5]; control 0.25 ± 0.05): 1.96 ± 0.02 | APC level ([5]; control 0.63 ± 0.03): 0.96 ± 0.44 | GSk3β level ([5]; control 0.69 ± 0.02): 1.89 ± 0.23 | Beta Catenin level ([5]; control 1.32 ± 0.09): 0.66 ± 0.09 | RAS level ([5]; control 1.96 ± 0.06): 0.25 ± 0.03 | RAS degradation ([5]; via GSK3β phosphorylation): degrades the RAS | MAPK pathway signaling (phosphor-MEK, phosphor-ERK, phosphor-AKT) ([6]; at 4 hours): suppressed MAPK pathway signaling | rebound of RAS-MAPK pathway signaling (pMEK, pERK, pAKT, MYC) ([6]; by 72 hours): no rebound activity was observed | formation of GTP-KRAS relative to the total amount of KRAS [7]: selectively inhibit the formation of GTP-KRAS | T1/2 [8]: T1/2 = 5.8 h (mice) | Cmax ([8]; 10 mg/kg b.wt.): Cmax = 2.6 μg/mL (10 mg/kg b.wt. mice) | T max ([8]; 10 mg/kg b.wt.): T max = 2 h (mice 10 mg/kg, b.wt;) | F (Bioavailability) [9]: F-92% (Bioavailability) | IC50 values, cancer cells and stem cells viability ([10]; KRAS G12D, G12V and G12C cell lines, 24 h): nanomolar concentration | IC50 values, cancer cell viability ([10]; panel of 30+ cell lines with WT KRAS or known KRAS mutations): micromolar to nanomolar concentrations | levels of phosphorylation of CRAF and AKT [11]: reduced the levels of phosphorylation | toxicity in normal cell lines [12]: minimum toxicity | expression of KRAS downstream signaling proteins MEK, RAF and PI3K [13]: has not altered the expression | pERK level ([13]; control 1.42 ± 0.069): 1.46 ± 0.23 | pCRAF level ([13]; control 1.52 ± 0.025): 1.42 ± 0.25 | pP13K level ([13]; control 1.85 ± 0.32): 1.62 ± 0.63 | pAKt level ([13]; control 1.89 ± 0.63): 1.72 ± 0.14 | pMEK level ([13]; control 1.96 ± 0.22): 1.85 ± 0.32 | PD-L1 expression [14]: suppresses PD-L1 expression | number of cancer cells compared against AMG510 and MRTX849 [15]: significant reduction in the number of cancer cells
